# According to EP2398468B1, “PHARMACEUTICAL COMPOSITIONS COMPRISING PRASUGREL BASE OR ITS PHARMACEUTICALLY ACCEPTABLE ACID ADDITION SALTS AND PROCESSES FOR THEIR PREPARATION” (KRKA, D.D., Novo Mesto, priority 2009, dated 2010):
# Counter-ions that a name gives are not always drawn. Like-named read-outs stand apart in the source and are kept apart here.
# Experiments:
# [1] = Equilibrium solubility in aqueous solutions, shaking flask method for 24 hours; assay type: physicochemical; conditions: for Solubility (mg/mL) at 37°C / Solubility (mg/mL) room temp / solubility at 24 h: 24 hours; for solubility at 24 h: thermodynamic from solid
# Experimental: The solubility of prasugrel base and some of its pharmaceutically acceptable salts in different dissolution media (in mg/mL) at room temperature and 37°C is given in Table 2. The equilibrium solubility of prasugrel base and some of its salts were checked in aqueous solutions at room temperature and 37 °C with shaking flask method for 24 hours (Heidoplh Incubator 1000, Unimax 1010). In comparison with prasugrel base, all salts are better soluble in lower pH values. In higher pH values the solubility decreases and at pH 6.8 the compound is slightly soluble to practically insoluble. […]
# physchem = assay type: physicochemical
smiles,measurement,setting,value
CC(=O)Oc1cc2c(s1)CCN(C(C(=O)C1CC1)c1ccccc1F)C2 (stereo not shown) [Prasugrel hydrochloride],Solubility (mg/mL) at 37°C,"[1]; AGJ (without pepsin) pH 1.2, 37°C, hydrochloride",4.43 mg/mL
same,Solubility (mg/mL) room temp,"[1]; AGJ (without pepsin) pH 1.2, room temperature, hydrochloride",5.00 mg/mL
same,Solubility (mg/mL) at 37°C,"[1]; Acetate Buffer solution pH 4.0, 37°C, hydrochloride",0.08 mg/mL
same,Solubility (mg/mL) room temp,"[1]; Acetate Buffer solution pH 4.0, room temperature, hydrochloride",0.07 mg/mL
CC(=O)Oc1cc2c(s1)CCN(C(C(=O)C1CC1)c1ccccc1F)C2 (stereo not shown) [Prasugrel hydroiodide],Solubility (mg/mL) at 37°C,"[1]; AGJ (without pepsin) pH 1.2, 37°C, hydroiodide",3.660 mg/mL
same,Solubility (mg/mL) room temp,"[1]; AGJ (without pepsin) pH 1.2, room temperature, hydroiodide",2.600 mg/mL
same,Solubility (mg/mL) at 37°C,"[1]; Acetate Buffer solution pH 4.0, 37°C, hydroiodide",0.166 mg/mL
same,Solubility (mg/mL) room temp,"[1]; Acetate Buffer solution pH 4.0, room temperature, hydroiodide",0.132 mg/mL
same,Solubility (mg/mL) at 37°C,"[1]; Phosphate Buffer solution pH 6.8, 37°C, hydroiodide",0.0018 mg/mL
same,Solubility (mg/mL) room temp,"[1]; Phosphate Buffer solution pH 6.8, room temperature, hydroiodide",0.00316 mg/mL
same,equilibrium solubility,[1]; compared with hydrochloride salt of prasugrel,comparable with solubility of hydrochloride salt of prasugrel
"CC(=O)Oc1cc2c(s1)CCN(C(C(=O)C1CC1)c1ccccc1F)C2 (stereo not drawn) [Prasugrel base, 2-acetoxy-5-([alpha]-cyclopropylcarbonyl-2-fluorobenzyl)-4,5,6,7-tetrahydrothieno[3,2-c]pyridine]",pKa,physchem,5.4
same,Solubility (mg/mL) at 37°C,"[1]; AGJ (without pepsin) pH 1.2, 37°C",3.23 mg/mL
same,Solubility (mg/mL) room temp,"[1]; AGJ (without pepsin) pH 1.2, room temperature",1.54 mg/mL
same,Solubility (mg/mL) at 37°C,"[1]; Acetate Buffer solution pH 4.0, 37°C",0.03 mg/mL
same,Solubility (mg/mL) room temp,"[1]; Acetate Buffer solution pH 4.0, room temperature",0.03 mg/mL
CC(=O)Oc1cc2c(s1)CCN(C(C(=O)C1CC1)c1ccccc1F)C2 (stereo not shown) [Prasugrel hydrobromide],solubility at 24 h,"[1]; AGJ (without pepsin) pH 1.2, 37 °C, pH 1.2, simulated gastric fluid, AGJ (without pepsin) pH 1.2, 37°C, read-out: Solubility (mg/mL) at 37°C",4.1 mg/mL
same,Solubility (mg/mL) room temp,"[1]; AGJ (without pepsin) pH 1.2, room temperature, hydrobromide",3.924 mg/mL
same,Solubility (mg/mL) at 37°C,"[1]; Acetate Buffer solution pH 4.0, 37°C, hydrobromide",0.153 mg/mL
same,Solubility (mg/mL) room temp,"[1]; Acetate Buffer solution pH 4.0, room temperature, hydrobromide",0.138 mg/mL
same,Solubility (mg/mL) at 37°C,"[1]; Phosphate Buffer solution pH 6.8, 37°C, hydrobromide",0.009 mg/mL
same,solubility at 24 h,"[1]; phosphate buffer solution pH 6.8, pH 6.8, aqueous buffer, Phosphate Buffer solution pH 6.8, room temperature, read-out: Solubility (mg/mL) room temp",0.003 mg/mL
